Data published in PubChem BioAssay (NCI).
Values joined by “and” are separate entries in the source; they are usually repeats but may differ in a detail not shown here. Equal entries are not always repeated.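 A five-concentration, 48-hour dose response in 96-well plates underlies each endpoint, interpolated linearly between surrounding concentrations. GI50 marks 50% less growth. The concentration for full growth arrest is given as TGI.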

Key:
Test in all cases: NCI anticancer screen, dose series, 48 h
UACC-257 melanoma = test system: UACC-257 melanoma
SNB-75 CNS = test system: SNB-75 CNS
SF-295 CNS = test system: SF-295 CNS
EKVX NSCLC = test system: EKVX NSCLC
UO-31 renal = test system: UO-31 renal
U251 CNS = test system: U251 CNS
IGROV1 ovarian = test system: IGROV1 ovarian
SR leukemia = test system: SR leukemia
NCI/ADR-RES ovarian = test system: NCI/ADR-RES ovarian
PC-3 prostate = test system: PC-3 prostate

SMILES	TGI (UACC-257 melanoma)	GI50 (SNB-75 CNS) [µM]	TGI (SNB-75 CNS)	TGI (SF-295 CNS)	GI50 (EKVX NSCLC) [µM]	TGI (EKVX NSCLC)	GI50 (UO-31 renal) [µM]	TGI (UO-31 renal)	GI50 (U251 CNS) [µM]	TGI (U251 CNS)	GI50 (IGROV1 ovarian) [µM]	TGI (IGROV1 ovarian)	GI50 (SR leukemia) [µM]	TGI (SR leukemia)	GI50 (UACC-257 melanoma) [µM]	GI50 (SF-295 CNS) [µM]	GI50 (NCI/ADR-RES ovarian) [µM]	TGI (NCI/ADR-RES ovarian) [µM]	GI50 (PC-3 prostate) [µM]	TGI (PC-3 prostate) [µM]
CC(=O)OCC1OC(OC2CC3C(C)(C)C(O)CC[C@]3(C)C3CCC45CC4(CC[C@H]5C(C)CC(O)C4OC4(C)C)[C@]23C)C(O)C(O)C1O (some centres undefined)	16.1 µM and 22.6 µM	13.7	15 µM and 26.6 µM	15.1 µM and 19.5 µM	13.7	15.9 µM and 29.2 µM	17.7	15.4 µM and 31.6 µM	5.17	10.3 µM and 16.5 µM	5.91	7.61 µM and 15.6 µM	1.93	3.53 µM and 4.13 µM						
O=Nc1ccc2ccccc2c1O	4.19 µM	2.61	15.7 µM	25.4 µM	8.61	22.6 µM	4.99	21.7 µM	3.11	9.46 µM	2.07	5.91 µM			2.13	7.78	2.62	8.22	2.61	11.9
CCCCOC(=O)NC(=O)c1cn(CCSCCOC(=O)NCCCCCCNC(=O)OCCSCCn2cc(C(=O)NC(=O)OCCCC)c(=O)[nH]c2=O)c(=O)[nH]c1=O	> 100 µM		> 100 µM	> 100 µM		> 100 µM		> 100 µM		74.1 µM		> 100 µM		> 100 µM						
NC(=O)C(c1ccccc1)N1CCOCC1 (centres undefined)	> 100 µM		> 100 µM	> 100 µM				> 100 µM		> 100 µM		> 100 µM		> 100 µM						
c1ccc2c(c1)[nH]c1cnc3c4cccnc4[nH]c3c12	52.4 µM		32.6 µM	49.8 µM		39 µM		33 µM				40.1 µM		48.7 µM						
C/C(=N\N=C(/[Se])N1CC2CCC(CC2)C1)c1ccccn1	0.569 µM		1.11 µM	2.24 µM		2.06 µM		1.9 µM		1.51 µM		2.48 µM								1.26
O=C(C(=O)N1CC2C=CC1CC2)c1c[nH]c2ccccc12 (centres undefined)	> 100 µM		> 100 µM	> 100 µM				> 100 µM		> 100 µM		> 100 µM		> 100 µM						
O=C1c2c(n(Cc3ccccc3)c(=O)n2Cc2ccccc2)C(=O)N1Cc1ccccc1	> 100 µM		> 100 µM	> 100 µM		> 100 µM		> 100 µM		> 100 µM		> 100 µM								
Cc1ccc(SC2=CC(=O)c3nc4ccccc4c4ccnc2c34)cc1	77.7 µM	39.8	> 100 µM	> 100 µM	35	> 100 µM	15.5	29.7 µM	30.2	> 100 µM	> 37.9	> 58.5 µM			24.7	> 100	27.9	> 95.4	22	71.2
Cc1cc(=O)oc2cc(OCc3c(F)cccc3Cl)ccc12	> 100 µM		34.1 µM	52.9 µM				> 100 µM		30.1 µM		> 100 µM								> 100
CCN1c2ccccc2C(Cl)(c2ccc(N(C)C)cc2)c2ccccc21		5.16	18.2 µM	73.8 µM	7.98	> 100 µM	1.91	5.27 µM	3.69	17.4 µM	2.61	7.98 µM				21.7	13.3	44.6	2.18	9.88
COc1ccccc1NC(=O)C1=C(C)NC(C)=C(C(=O)Nc2ccccc2OC)C1c1ccc(C)cc1	> 100 µM		> 100 µM	> 100 µM		> 100 µM		> 100 µM		> 100 µM		> 100 µM								
O=C1C(=O)N(c2ccc(Cl)cc2Cl)C(=O)C(=O)C1c1nc2ccccc2o1	> 100 µM		> 100 µM	> 100 µM		> 100 µM		> 100 µM		> 100 µM		> 100 µM		> 100 µM						
CC1=CCC23C(C1)OC(Br)(C=CC2(C)O)C3(C)C (centres undefined)	> 100 µM		> 100 µM	> 100 µM		> 100 µM						> 100 µM								
CC(=O)CCCCO	> 100 µM		> 100 µM	> 100 µM		> 100 µM		> 100 µM		> 100 µM		> 100 µM								
O=C1CN(C(=O)c2ccccc2)Cc2[nH]c3ccccc3c21	> 100 µM		> 100 µM	> 100 µM		> 100 µM		> 100 µM		> 100 µM		> 100 µM		> 100 µM						

SMILES	TGI (UACC-257 melanoma)	GI50 (SNB-75 CNS) [µM]	TGI (SNB-75 CNS)	TGI (SF-295 CNS)	GI50 (EKVX NSCLC) [µM]	TGI (EKVX NSCLC)	GI50 (UO-31 renal) [µM]	TGI (UO-31 renal)	GI50 (U251 CNS) [µM]	TGI (U251 CNS)	GI50 (IGROV1 ovarian) [µM]	TGI (IGROV1 ovarian)	GI50 (SR leukemia) [µM]	TGI (SR leukemia)	GI50 (UACC-257 melanoma) [µM]	GI50 (SF-295 CNS) [µM]	GI50 (NCI/ADR-RES ovarian) [µM]	TGI (NCI/ADR-RES ovarian) [µM]	GI50 (PC-3 prostate) [µM]	TGI (PC-3 prostate) [µM]
CCOC(=O)C1SC(=Nc2ccc(Cl)c(Cl)c2)N=C1C (centres undefined)	> 100 µM		58.9 µM	> 100 µM		> 100 µM		> 100 µM		> 100 µM		> 100 µM								
C=CCC(N[C@H](CO)c1ccccc1)c1cn(C(=O)OCC)c2ccccc12 (some centres undefined)	18 µM	23	74.3 µM	29.3 µM	17.5	37.3 µM	16.1	32.5 µM	17.8	33.2 µM	8.46	26.3 µM				15.4	15.9	32.4	23.2	69.3
CN1CC(C(=O)C2C(=O)c3ccccc3C2=O)C(=O)C(=O)C(C(=O)C2C(=O)c3ccccc3C2=O)C1 (centres undefined)	> 100 µM		> 100 µM	> 100 µM				> 100 µM		> 100 µM		> 100 µM		> 100 µM						
COc1ccc(-n2c3c(c4c(CN5CCOCC5)c(O)ccc42)CCc2ccccc2C3=O)cc1	> 100 µM			> 100 µM	> 100	> 100 µM	> 100	> 100 µM	85.7	> 100 µM	37.6	> 100 µM			> 100	> 100	25	88.9	16.9	> 100
CC(C)(C)C(=O)ON1N=NC2C3CC(OCc4ccccc4)(OCc4ccccc4)C(O3)C21 (centres undefined)	29.2 µM		69.5 µM	52.9 µM				49.7 µM		31.4 µM		> 100 µM								
CSc1ccc2c3c(n(C[C@H](O)CO)c(=O)c2c1)-c1ccccc1C3=O	42.6 µM	12.5	> 100 µM	12 µM	3.89	88 µM	1.53	8.94 µM	1.19	7.49 µM	3.77	85.3 µM			13.2	2.82	4.44	49.9	3.42	> 100
COc1ccccc1C#Cc1ccccc1C#CCCCCCC#Cc1ccccc1C#Cc1ccccc1OC	> 100 µM	1.81	14.3 µM	> 100 µM	> 100	> 100 µM	> 100	> 100 µM	97.1	> 100 µM	77.7	> 100 µM			> 100	> 100	78.6	> 100	> 100	> 100
Fc1ccc(C2SCc3nc4ccccc4n32)cc1 (centres undefined)			9.55 µM	> 100 µM		> 100 µM		70.1 µM		> 100 µM		> 100 µM		96.6 µM						
O=C(OCC1CO1)c1cccs1 (centres undefined)	> 100 µM		> 100 µM	> 100 µM		> 100 µM		> 100 µM				> 100 µM								
Cc1c2c[n+](C(C)C)ccc2c(C)c2c1[nH]c1ccccc12		1.34	40.9 µM	20 µM	3.51	53.9 µM	20.6	> 100 µM	0.456	15.2 µM						1.32	56.5	> 100	2.59	40.6
C#Cc1c(C(N)=O)ncn1C1OC(COP(=O)(OCc2ccc([N+](=O)[O-])o2)N(C)CCCCCl)C(O)C1O (centres undefined)	> 100 µM	28.1	> 100 µM	> 100 µM	82.9	> 100 µM	34.8	> 100 µM	53.9	> 100 µM	4.59	> 100 µM			35.2	31.2	15.1	> 100	53.5	> 100
CO[C@@H]1CC(=O)C2(CC(=O)O[C@@H]2/C=C(\C)CCC=C(C)C)C[C@@H]1O (some centres undefined)	2.52 µM	1.2	3.66 µM	> 11.7 µM	1.42	4.51 µM	1.19		0.672	1.4 µM	1.09	4.03 µM			0.883	1.43	0.487	1.51	0.378	1.44
Nc1c(C(=O)Nc2ccccc2)[n+]([O-])c2ccccc2[n+]1[O-]	59.4 µM		34 µM	41.1 µM		56.9 µM		42 µM		26.3 µM		44.8 µM								
COc1cc2c(cc1O)CC13CCC(=O)N1CCc1cc(OC)c(O)c-2c13 (centres undefined)	> 68.1 µM		> 68.1 µM	> 68.1 µM		> 68.1 µM		> 68.1 µM				> 68.1 µM		> 68.1 µM						
CC(=O)OC1(C)C(=O)OC1(C)C(C)=O (centres undefined)	> 100 µM		> 100 µM	> 100 µM		> 100 µM		> 100 µM		> 100 µM		> 100 µM								
